One assay deals with T1, SLC6A8 (Homo sapiens, UniProt P48029).
T1 construct: host or cells: 'Cells', not specified
T1 sequence (P48029 1-635): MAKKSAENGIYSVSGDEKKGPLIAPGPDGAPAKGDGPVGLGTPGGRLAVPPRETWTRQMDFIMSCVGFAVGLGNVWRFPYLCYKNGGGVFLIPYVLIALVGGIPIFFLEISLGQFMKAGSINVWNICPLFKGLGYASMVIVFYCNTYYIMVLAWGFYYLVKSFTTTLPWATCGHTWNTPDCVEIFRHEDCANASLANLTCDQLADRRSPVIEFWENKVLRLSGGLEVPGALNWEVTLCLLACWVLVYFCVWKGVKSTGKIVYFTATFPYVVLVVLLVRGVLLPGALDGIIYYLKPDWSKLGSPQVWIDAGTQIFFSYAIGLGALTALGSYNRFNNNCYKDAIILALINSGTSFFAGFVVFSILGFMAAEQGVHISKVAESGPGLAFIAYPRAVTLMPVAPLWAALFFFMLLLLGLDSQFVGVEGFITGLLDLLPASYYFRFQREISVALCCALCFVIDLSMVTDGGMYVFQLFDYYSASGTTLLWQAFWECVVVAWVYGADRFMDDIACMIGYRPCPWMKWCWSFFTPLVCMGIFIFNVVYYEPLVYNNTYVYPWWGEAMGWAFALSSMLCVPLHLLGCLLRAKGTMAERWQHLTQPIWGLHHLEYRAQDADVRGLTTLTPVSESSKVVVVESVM
Briefly: target engagement by mass spectrometry of the adductome (streptavidin enrichment, TMT quantification). It is filed as binding. The following applies: co-dosing 1 mM β-GPA with 20 μM JN-1724, 30 minutes, 6 minutes 365 nm. The method, then: Cells were dosed for 30 minutes with 20 μM JN-1724 with or without 1 mM β-GPA and then irradiated for 6 minutes with 365 nm light. Cells were lysed; biotin was clicked on; and biotinylated proteins were affinity-purified with streptavidin, digested with trypsin, and identified by tandem mass spectrometry with TMT quantification. SLC6A8 (dot pointed at with arrow) was one of the proteins identified and co-dosing with 1 mM β-GPA reduced the level of enrichment by 80%.
A 30 minute 100 μM dose of JN-1724 followed by 6 minutes of cross-linking at 365 nm is enough to inhibit SLC6A8 transport of creatine to 5.7% of normal transport. To confirm target engagement by unbiased mass spectrometry of the adductome, Cells were dosed for 30 minutes with 20 μM JN-1724 with or without 1 mM β-GPA and then irradiated for 6 minutes with 365 nm light. Cells were lysed; biotin was clicked on; and biotinylated proteins were affinity-purified with streptavidin, digested with trypsin, and identified by tandem mass spectrometry with TMT quantification. SLC6A8 (dot pointed at with arrow) was one of the proteins identified and co-dosing with 1 mM β-GPA reduced the level of enrichment by 80% (FIG. 4).

Assay [1] addresses T2, creatine transporter SLC6A8 (Homo sapiens, UniProt P48029).
T2 construct: host or cells: 'Cells', not specified
T2 sequence (P48029 1-635): T1 sequence (P48029 1-635)
Briefly: creatine uptake assay after photo-crosslinking of reactive affinity probe. The following applies: 100 μM JN-1724 with or without 1 mM β-GPA, 30 minutes, 6 minutes 365 nm; FIG. 3. It is filed as cell-based. The method, then: Cells were dosed for 30 minutes with 100 μM JN-1724 with or without 1 mM β-GPA and then irradiated for 6 minutes with 365 nm light. Cells were washed and the residual transport activity of SLC6A8 was measured via a creatine uptake assay.
RAPID identifies orthosteric and allosteric ligands as starting points or probes for target occupancy. The extent of covalent modification of the creatine transporter by a subset of the RAP library is highly reproducible (FIG. 2A). Screen of 2000 RAPs against the creatine transporter SLC6A8±the substrate analog guanidinoproprionic acid (GPA) identifies substrate-sensitive binder (FIG. 2B). Dots that fall off-diagonal are either substrate-competitive or substrate-cooperative. Two RAPs identified from the screen show dose-dependent inhibition or enhancement of covalent modification of the target as a function of the concentration of GPA (FIG. 2C).
A 30 minute 100 μM dose of JN-1724 followed by 6 minutes of cross-linking at 365 nm is enough to inhibit SLC6A8 transport of creatine to 5.7% of normal transport. […] Cells were lysed; biotin was clicked on; and biotinylated proteins were affinity-purified with streptavidin, digested with trypsin, and identified by tandem mass spectrometry with TMT quantification. […]

SMILES strings stand for the structures.

As for `N=C(N)NCCC(=O)O` [β-GPA, β-guanidinoproprionic acid], the “reduction of the level of enrichment of SLC6A8” value on SLC6A8 came out at 80%. Moreover, in assay [1], the “effect on residual transport activity of SLC6A8” value is “protection”.
